Experimental findings from US8088951B2, “Epigenetic mechanisms re-establish access to long-term memory after neuronal loss” (Massachusetts Institute of Technology, priority 2006, dated 2012) are described below.

One test concerns c-fos. Description: c-fos positive cells after fear conditioning training. It is filed as in vivo, mice. The note with it: compared to saline treated group. From the text:
(§1) HDAC inhibitors regulate neuronal activity and neurogenesis in dentate gyrus. […] Thus, activity induced c-fos expression may also be used to evaluate the effect of HDAC inhibitors on hippocampus dependent learning. FIG. 17d is a bar graph depicting the significant enhancement by SAHA.

In test [1] the test system is lys9lys 14 on histone 3 and lys5 on histone 4. Description: Histone acetylation in brain lysates of treated mice. The format is in vivo. The note with it: compared to saline treated mice. As to the method: Immunoblotting and staining: Lysates for immunoblotting were prepared as described by Fischer et al. (3). To isolate histones, brain tissue was homogenized in TX-buffer (50 mM Tris HCL, 150 mM NACL, 2 mM EDTA, 1% Triton-100) and incubated at 4° C. for 15 min prior to centrifugation at 200 rpm for 10 min. After a wash-step in TX-buffer the pellet was dissolved in TX-buffer containing 0.2M HCl and incubated on ice for 30 min, before a second centrifugation at 10000 rpm for 10 min. The supernatant was either dialysed or directly used for immunoblotting. Antibodies were used in 1:1000 concentrations. All antibodies detecting histones and anti-PSD-95 were form Upstate (Lake Placid, N.Y.). Anti-synaptophysin (SVP38) was from Sigma. Anti-neuronal nuclei (neuN) and anti-growth associated protein (Gap43) were from Chemicon (Temecula, Calif.) and anti-N-cadherin, anti-β-catenin were from Santa Cruz (Santa Cruz, Calif.). Immunostaining was performed as described by Fischer et al. (3). Antibodies mentioned above were used in a 1:500 dilution. Anti-MAP-2 antibody (Sigma) was used in a 1:200 dilution.
(§2) The effects of SAHA and MS-275, relative to sodium butyrate (SB), on the hippocampus dependent associative learning in wildtype mice.

For a further test, the system named is dentate gyrus. Description: Neurogenesis in dentate gyrus (BrdU, DCX). More on the design: species or system mice. To be noted: mouse, in vivo.
Description: as §1

For the next test, the system named is C57BL/6J mice. Description: Contextual fear conditioning (associative learning) in wild type mice. The format is in vivo. The note with it: for associative learning, contextual fear conditioning paradigm: wildtype mice, chronic treatment for 10-21 days.
Description: Learning tests: All behavioral testing is described in Fischer et al. (3).
Mechanism underlying EE. Other than a few genes involved in synaptic function, relatively little is known about the mechanism underlying EE (12-14). Since histone acetylation, an epigenetic mechanism regulating gene expression via chromatin remodeling, has recently been implicated in synaptic plasticity and learning behavior (15-18), the induction of a transcriptional program by EE that leads to activation of plasticity genes was evaluated. Wild type mice were subjected to EE and hippocampal and cortical brain lysates were obtained 3, 24 h or 2 weeks later (n=3/group) by acid extraction and probed with antibodies detecting histone-tail modification that indicate active chromatin. Increases in hippocampal H3 (K-9, K14) and H4 (K-5) and in cortical H3 (K-9) and H4 (K-5) acetylation were observed. […] No changes in H4 acetylation were observed when the Ac-H4 (K,8,12,16) antibody was used, which is likely due to the fact that H4-K16 is a marker of condensed chromatin. EE induced hippocampal and cortical histone 3 (H3) and histone 4 (H4) acetylation and […] as soon as 3 hours after treatment (FIGS. 3a, b). […] To investigate whether inhibition of HDACs mimics the effects of EE, SB was administered daily [ip] into wild type mice for 4 weeks (FIG. 3c). […] Two days after the last injection mice were trained in the fear conditioning paradigm. […] Locomotor activity or basal anxiety was not altered in SB-injected mice (FIG. 8c).
The effect of sodiumbutyrate injection on learning, basal anxiety, explorative behavior and brain plasticity. C57BL/6J mice were subjected to fear conditioning and injected intraperitoneally [ip] with 1.2 g/kg sodiumbutyrate (SB, n=8) or saline (vehicle; n=8) immediately afterwards. […] C57BL/6J mice were implanted with microcannulae into the lateral brain ventricles (icv) and injected with either 100 ng SB, 50 ng TSA or vehicle immediately after fear conditioning (n=8/group). […] C57BL/6J were daily injected [ip] with SB or saline (n=8/group) for 4 weeks before all mice were subjected to the elevated plus maze and open field test. […] Immunoblots were quantified relative to the optical density of the vehicle-group (set to 1). […] The analysis was performed as described under FIG. 1g.
as §2
Mice were injected 10 days with either 5 mg/kg of MS275 or 25 mg/kg of UW_WT-I—06 or UW_WT-I—05 before training and memory tests as described above. […] Andorfer, C. et al. Cell-cycle reentry and cell death in transgenic mice expressing nonmutant human tau isoforms. J neurosci 25, 5446-5454 (2005). • 2. Santacruz, K. et al. Tau suppression in a neurodegenerative mouse model improves memory function. Science 309, 476-481 (2005). • 3. Fischer, A., Sananbenesi, F., Pang, P. T., Lu, B. & Tsai, L. H. Opposing roles of transient and prolonged expression of p25 in synaptic plasticity and hippocampus-dependent memory. Neuron 48, 825-838 (2005). • 4. Cruz, J. C. & Tsai, L. H. Jekyll and Hyde kinase: roles for Cdk5 in brain development and disease. Curr Opin Neurobiol. 14, 390-394 (2004). • 5. Cruz, J. C., Tseng, H. C., Goldman, J. A., Shih, H. & Tsai, L. H. Aberrant Cdk5 activation by p25 triggers pathological events leading to neurodegeneration and neurofibrillary tangles. Neuron 40, 471-83 (2003). • 6. Nithianantharajah, J. & Hannan, A. J. Enriched environments, experience-dependent plasticity and disorders of the nervous system. Nat Rev Neurosci 7, 697-709 (2006). • 7. Kim, J. J. & Fanselow, M. S. Modality-specific retrograde amnesia of fear. Science 256, 675-7 (1992). • 8. Gilmore, E. C. & Herrup, K. Neocortical cell migration: GABAergic neurons and cells in layers I and VI move in a cyclin-dependent kinase 5-independent manner. J Neurosci 21, 9690-700 (2001). • 9. […]

In the case of `Nc1ccccc1NC(=O)c1ccc(CNC(=O)OCc2cccnc2)cc1` [MS-275], in the test with c-fos, the “number of c-fos positive cells” value is reported as “lower number of c-fos positive cells”. For the same compound, the “acetylation of lys9lys 14 on histone 3 and lys5 on histone 4 in brain lysates” value in test [1] is “increased acetylation of lys9lys 14 on histone 3 and lys5 on histone 4”. The “DCX (marker for newly generated neurons) labeled cells in dentate gyrus” value with dentate gyrus was “not”. In addition, the “associative learning, contextual fear conditioning paradigm” value in the test with C57BL/6J mice is “does not facilitate associative learning”.
For `O=C(CCCCCCC(=O)Nc1ccccc1)NO` [SAHA, suberoylanilide hydroxamic acid], in the test on c-fos, the “number of c-fos positive cells” value was “higher number of c-fos positive cells”. Further, in test [1], the “acetylation of lys9lys 14 on histone 3 and lys5 on histone 4 in brain lysates” value was “increased acetylation of lys9lys 14 on histone 3 and lys5 on histone 4”. For the same compound, in the test with dentate gyrus, the “BrdU positive cells in the subgranule zone of the dentate gyrus” value is given as “increased BrdU positive cells” and the “DCX (marker for newly generated neurons) labeled cells in dentate gyrus” value is “labeled more cells”. Moreover, the “associative learning, contextual fear conditioning paradigm” value in the test with C57BL/6J mice was “more potent than SB in facilitating associative learning”.
Take `CC(/C=C/C(=O)NO)=C\[C@@H](C)C(=O)c1ccc(N(C)C)cc1` [TSA, trichostatin A]: the “freezing behavior during the memory test” value in the test on C57BL/6J mice (icv 100 ng SB or 50 ng TSA immediately after fear conditioning, test 24 h later, P<0.0001) was “more freezing behavior than vehicle injected mice”. For the same compound, in the test with C57BL/6J mice (wild type mice, intraperitoneal [ip] and intracerebroventricular [icv] injections), the associative learning result is “significantly facilitated associative learning”.
